US4804502A, “Vitamin D compounds” (priority 1988, dated 1989)
Read-outs that look alike come from different tables or passages of the source. Blank lines part the entries; values can stand above or below the compound they belong to.

Key:
[1] = test system: bone calcium mobilization; test: Bone Calcium Mobilization in Rat (plasma Ca increase); assay type: in vivo; settings: 12.5 ng/rat, intrajugular, 18 h
Description: Controls received carrier alone. Bone Ca resorption (BCR) was estimated by measuring the blood Ca increase in the treated rats. Blood was collected in heparinized tubes and centrifuged. The resulting plasma was measured for calcium concentration by atomic absorption spectroscopy. Since rats were fed a diet essentially devoid of Ca, plasma Ca increases reflected mobilization of Ca from bone, not intestinal Ca absorption.

[2] = biological target: T1, 1,25-(OH)2 D3 receptors (chick intestine) (Gallus gallus, UniProt O42392); test: Competitive Binding to 1,25-(OH)2 D3 Intestine Receptors, chick; settings: a/b×100 from amounts displacing 50% of 1,25-(OH)2[3H]D3
T1 construct: receptor prepared from intestine of chick, rat and calf; from tissue; host or cells: chick proximal small-intestine mucosa, cytosol, 35% ammonium sulphate precipitate
T1 sequence (O42392 1-451): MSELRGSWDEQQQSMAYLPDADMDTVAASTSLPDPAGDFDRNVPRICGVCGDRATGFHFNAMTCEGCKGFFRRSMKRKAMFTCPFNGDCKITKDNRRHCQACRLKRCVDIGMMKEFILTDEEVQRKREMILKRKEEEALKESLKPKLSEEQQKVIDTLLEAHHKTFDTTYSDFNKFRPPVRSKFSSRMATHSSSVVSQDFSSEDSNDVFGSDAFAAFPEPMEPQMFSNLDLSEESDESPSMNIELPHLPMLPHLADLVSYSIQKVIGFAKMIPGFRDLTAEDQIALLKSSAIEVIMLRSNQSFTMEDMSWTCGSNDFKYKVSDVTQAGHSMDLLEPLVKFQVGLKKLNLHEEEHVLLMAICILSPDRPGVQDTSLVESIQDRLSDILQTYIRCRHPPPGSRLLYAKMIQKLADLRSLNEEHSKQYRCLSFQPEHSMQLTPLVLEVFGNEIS
Description: (§1) The ability of vitamin D3 metabolites to compete for 1,25-(OH)[^3 H]D3 receptor binding sites was evaluated with receptor prepared from intestine of chick, rat and calf. […] Mucosa was collected and washed three times with 10 volumes of cold KTED buffer. The washed mucosa was homogenized in KTED buffer (20% w/v) using a Polytron Pt20 tissue disruptor. Cytosol was prepared by centrifugation of the homogenized mucosa at 300,000×g for 1 hour. […] The ammonium sulphate treated cytosol was centrifuged at 20,000×g for 10 minutes. The supernatant was discarded and the pellet lyophilized and stored at […] Prior to binding assay the pellet was resuspended in cold binding assay buffer containing 150 mM KCl, 50 mM NaPO4, 1.5 mM EDTA and 5 mM dithiothreitol.

[3] = biological target: T2, 1,25-(OH)2 D3 receptors (calf intestine) (Bos taurus, UniProt Q28037); test: Competitive Binding to 1,25-(OH)2 D3 Intestine Receptors, calf; settings: a/b×100 from amounts displacing 50% of 1,25-(OH)2[3H]D3
T2 construct: receptor prepared from intestine of chick, rat and calf; from tissue; host or cells: calf proximal small-intestine mucosa, cytosol, 35% ammonium sulphate precipitate
T2 sequence (Q28037 1-426): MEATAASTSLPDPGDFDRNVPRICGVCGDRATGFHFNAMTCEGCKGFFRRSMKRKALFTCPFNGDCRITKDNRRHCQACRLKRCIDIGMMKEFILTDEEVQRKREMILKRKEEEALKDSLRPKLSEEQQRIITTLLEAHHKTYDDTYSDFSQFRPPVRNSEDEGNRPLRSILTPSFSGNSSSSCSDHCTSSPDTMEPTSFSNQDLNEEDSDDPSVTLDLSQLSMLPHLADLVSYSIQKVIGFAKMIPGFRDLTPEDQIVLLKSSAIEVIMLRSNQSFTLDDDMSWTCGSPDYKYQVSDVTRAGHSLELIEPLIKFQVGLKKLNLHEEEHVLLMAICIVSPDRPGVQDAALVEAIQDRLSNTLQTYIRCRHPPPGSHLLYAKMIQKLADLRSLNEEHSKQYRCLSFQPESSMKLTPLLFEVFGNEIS
Description: as §1

[4] = test system: HL-60 promyelocytic leukemia cells; test: Inhibition of proliferation of HL-60 cells; assay type: cell-based; settings: Homo sapiens, HL-60, 192 h; for IC50: read-out: ID50 (concentration which reduced the cell number by 50%)
Description: (§2) Inhibition of Cell Proliferation and Induction of Cell Differentiation
(§3) Cultures of HL-60 promyelocytic leukemia cells were established in the absence (control) and presence of various concentrations of test compounds. After an 8-day incubation period, the cultures were evaluated for proliferation of tumor cells, cell viability, and cellular differentiation. Proliferation was assessed by directly enumerating the increased number of tumor cells resulting from cell division during incubation. Viability was assessed by dye exclusion technique to learn whether any of the compounds were lethal to the cultured HL-60 cells. Cellular differentiation was evaluated by determining the number of cells which had acquired the enzymes necessary to support a respiratory burst, a characteristic of mature macrophages and granulocytes.
(§4) Tissue culture medium used in these experiments was RPMI-1640 supplemented to 10% v/v with heat-inactivated fetal bovine serum and to an additional 1.6 mM with L-glutamine.
(§5) Test compounds were dissolved in sufficient ethanol to yield stock solutions of 1×10^-2 or 1×10^-3 molar. Reduced lighting was used when working with compounds and stock solutions were stored in the dark at -20° C. in an argon atmosphere. Compounds were diluted in tissue culture medium and added to flasks containing HL-60 cells to achieve the final concentration described in each test.
(§6) The HL-60 tumor cell line was originally derived from a patient with promyelocytic leukemia and was obtained from the American Type Culture Collection. The cells were maintained in liquid culture by serial passage twice weekly in tissue culture medium. […] In any test, three replicate flasks were incubated without compound (control) or in the presence of varying concentrations of test compound. Ethanol, used as the vehicle, was kept constant in all dilutions in each test and had no effect on cell proliferation, viability or cell differentiation at the concentrations used (≤0.1%). After 8 days of incubation at 37° in a humidified atmosphere of 5% CO2 in air, cultures were evaluated for tumor cell proliferation, viability and differentiation.
Quantitation of proliferation was done by enumerating the number of HL-60 cells in each individual flask (3 flasks per experimental point) using an Elzone electronic particle counter. Results are shown as the percent reduction of cell number calculated for each concentration tested according to the formula: [formula] The results are also expressed as the concentration which reduced the cell number by 50% (ID50).

[5] = test system: HL-60 promyelocytic leukemia cells; test: Induction of differentiation of HL-60 cells (NBT reduction); assay type: cell-based, human; settings: for EC50: Homo sapiens, HL-60, 192 h, read-out: ED50 (concentration which induced differentiation of 50% of the cells)
Description: as §2, §3, §4, §5, §6
Quantitation of differentiated cells was done by the biochemical method of nitroblue tetrazolum (NBT) reduction. One million HL-60 cells were pooled from replicate cultures, centrifuged at 220×g for 10 minutes, and resuspended in 1 ml of Ca^++ -Mg^++ -deficient phosphate buffered saline prepared by supplementing Ca^++ -Mg^++ -free phosphate buffered saline (PBS) to 20% v/v with heat-inactivated fetal bovine serum). Nitroblue tetrazolium was dissolved at 0.5 mg per ml in Ca^++ -Mg^++ -free PBS with gentle heating and frequent mixing. A stock solution of 1 mg tetradecanoyl phorbol acetate (TPA) per ml in ethanol, stored at -20°, was diluted 100-fold with Ca^++ -Mg^++ -free PBS to prepare a working solution. The test was done by adding 1 ml of NBT solution and 0.02 ml of the working TPA solution to the HL-60 cells. After mixing, the tubes were incubated in a 37° water bath for 25 minutes then transferred to ice. Undifferentiated and differentiated cells present in any sample were determined microscopically by surveying a minimum of 300 cells per sample. Cells without pigmented granules (clear cells) were judged to be undifferentiated while those containing greater than 3 blue-black formazan granules were scored as differentiated. Generally, differentiated cells were intensely pigmented clearly indicating the enzymatic conversion of NBT to formazan. Results are expressed as the percentage of differentiated cells present in any sample as calculated according to the formula: [formula] The results are also expressed as the concentration of compound which induced differentiation of 50% of the cells (ED50).

[6] = test system: intestinal calcium absorption (duodenum); test: Stimulation of Intestinal Calcium Absorption in Rat (intestinal 45Ca transport, everted gut sac); settings: 12.5 ng/rat, intrajugular, 18 h
vitamin D deficient rats = settings: 3 weeks
[7] = read-out: % Reduction in cell number
[8] = 8 days, from dose response curves

SMILES: C=C1CC[C@H](O)C/C1=C/C=C1\CCC[C@]2(C)[C@@H]([C@H](C)CC#CC(C)(C)O)CC[C@@H]12 [Compound C, 25-hydroxy-23-yne-cholecalciferol]
- % of 1,25-(OH)2 D3 Effect in Rat, bone calcium mobilization [1]: 0%
- Competitive Binding to 1,25-(OH)2 D3 Receptors - % of 1,25-(OH)2 D3 Effect, chick intestine [2]: 0%
- Competitive Binding to 1,25-(OH)2 D3 Receptors - % of 1,25-(OH)2 D3 Effect, calf intestine [3]: 0%
- inhibition at 0.1 µM [4, 7]: 0%
- inhibition at 1 µM [4, 7]: 31%
- inhibition at 3 µM [4, 7]: 79%
- IC50 [4]: 1.5 µM
- % Differentiated cells ([5]; 10 × 10^-8 M, 8 days): 5%
- % Differentiated cells ([5]; 100 × 10^-8 M, 8 days): 27%
- % Differentiated cells ([5]; 300 × 10^-8 M, 8 days): 95%
- EC50 [5]: 1.5 µM
- % of 1,25-(OH)2 D3 Effect in Rat, intestinal calcium absorption [6]: 71%

- Competitive Binding to 1,25-(OH)2 D3 Receptors - % of 1,25-(OH)2 D3 Effect, chick intestine [2]: 0%
- Competitive Binding to 1,25-(OH)2 D3 Receptors - % of 1,25-(OH)2 D3 Effect, calf intestine [3]: 0%
- IC50 [4, 8]: 0.25 µM
- EC50 [5, 8]: 0.2 µM
SMILES: C=C1CC[C@H](O)C/C1=C/C=C1\CCC[C@]2(C)[C@@H]([C@H](C)CC#CC(O)(C(F)(F)F)C(F)(F)F)CC[C@@H]12 [Compound D, 25-hydroxy-23-yne-26,26,26,27,27,27-hexafluorocholecalciferol]
- % of 1,25-(OH)2 D3 Effect in Rat, bone calcium mobilization [1]: 11%
- inhibition at 0.01 µM ([4]; 1 × 10^-8 M, 8 days, read-out: % Reduction in cell number): 0%
- inhibition at 0.1 µM ([4]; 10 × 10^-8 M, 8 days, read-out: % Reduction in cell number): 14%
- inhibition at 1 µM ([4]; 100 × 10^-8 M, 8 days, read-out: % Reduction in cell number): 77%
- % Differentiated cells ([5]; 1 × 10^-8 M, 8 days): 6%
- % Differentiated cells ([5]; 10 × 10^-8 M, 8 days): 27%
- % Differentiated cells ([5]; 100 × 10^-8 M, 8 days): 99%
- % of 1,25-(OH)2 D3 Effect in Rat, intestinal calcium absorption [6]: 0%

SMILES: C=C1/C(=C\C=C2/CCC[C@]3(C)[C@@H]([C@H](C)CCCC(C)(C)O)CC[C@@H]23)C[C@@H](O)C[C@@H]1O [1,25-(OH)2 D3, reference compound]
- % of 1,25-(OH)2 D3 Effect in Rat, bone calcium mobilization [1]: 100%
- Bone Mass (vitamin D deficient rats; daily dose 15 ng): 156 ± 16 mm^3 /cm^3
- Serum Ca^2+ (vitamin D deficient rats; daily dose 15 ng): 11.76 ± 0.16 mg/dL
- Serum PO4^2- (vitamin D deficient rats; daily dose 15 ng): 7.61 ± 0.31 mg/dL
- Bone Mass (vitamin D deficient rats; daily dose 60 ng): 296 ± 56 mm^3 /cm^3
- Serum Ca^2+ (vitamin D deficient rats; daily dose 60 ng): 11.92 ± 0.40 mg/dL
- Serum PO4^2- (vitamin D deficient rats; daily dose 60 ng): 6.58 ± 0.30 mg/dL
- % of 1,25-(OH)2 D3 Effect in Rat, intestinal calcium absorption [6]: 100%
